Columns and labels:
[1] = tested on: Lectin Pathway; experiment: Lectin Pathway Activation Assay in Human Serum (mannan-coated ELISA, C3c detection); type: biochemical; conditions: 1% human serum
Protocol: Microtiter ELISA plate was coated with mannan from Saccharomyces cerevisiae (Sigma-Aldrich, M7504) for overnight at 4° C. in coating buffer [15 mM Na2CO3, 35 mM NaHCO3].

[2] = biological target: MASP-2 (CCP1-CCP2-SP) (Homo sapiens (Human), UniProt O00187); experiment: Enzymatic Assay for MASP-2 (fluorogenic substrate); type: biochemical
[3] = biological target: MASP-2 CCP2-SP (Homo sapiens (Human), UniProt O00187); experiment: MASP-2 co-crystallization, X-ray crystallography and structure analysis (H-bonds, van der Waals contacts); set-up: van der Waals contact distance, MASP-2 HIS 483 atom CD2 / van der Waals contact distance, MASP-2 HIS 483 atom NE2 / van der Waals contact distance, SER 654 C to compound atom / van der Waals contact distance, SER 654 O to compound atom / van der Waals contact distance, TRP 655 C to compound atom / van der Waals contact distance, MASP-2 GLY 528 atom CA / van der Waals contact distance TRP 655 atom CZ3 / van der Waals contact distance TRP 655 atom N / van der Waals contact distance TRP 655 atom CE3 / van der Waals contact distance GLY 656 atom C / van der Waals contact distance GLY 656 atom CA / van der Waals contact distance GLY 656 atom O / van der Waals contact distance, MASP-2 TYR 607 atom CD1 / van der Waals contact distance, MASP-2 PRO 606 atom O / d(C3,CA1) / d(CA1,N1)2 / d(H4,O1) / d(H4,O2) / d(O1,O2) / d(CA1,O2) / d(CA6,O1) / d(CA6,O2) / d(CA1,C5) / d(O2,H3) / d(N2,C2) / d(CA5,N2) / d(N2,C4) / d(N2,C6) / d(N2,CA3) / d(N2,O3) / d(O4,H2): unit not given beside the values;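 for Ligand-pharmacophore element distance, pharmacophore element C2: distance from averaged pharmacophore element to bound ligand; missing value means element absent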;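 for Ligand-pharmacophore element distance, pharmacophore element C3: distance from averaged pharmacophore element to bound ligand; missing value means element absent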;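 for Ligand-pharmacophore element distance, pharmacophore element C4: distance from averaged pharmacophore element to bound ligand; missing value means element absent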;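 for Ligand-pharmacophore element distance, pharmacophore element C5: distance from averaged pharmacophore element to bound ligand; missing value means element absent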
In short: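 Inhibitor complexes were obtained by soaking crystals of E. coli-derived human MASP-2 CCP2-SP. Synchrotron diffraction at 1.0 wavelength, molecular replacement and partial refinement gave the models; one pose per ligand was chosen for contact analysis.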

[4] = Table A5-1 pharmacophore: distance between elements, S2/S1 region
[5] = Table A5-2 pharmacophore distance, S3/S4 region
[6] = Table A7-1, between pharmacophore elements of the bound compound
[7] = Table A8-6, nearest protein atom in cell to the left

Chain of MASP-2 CCP2-SP (O00187 445-686): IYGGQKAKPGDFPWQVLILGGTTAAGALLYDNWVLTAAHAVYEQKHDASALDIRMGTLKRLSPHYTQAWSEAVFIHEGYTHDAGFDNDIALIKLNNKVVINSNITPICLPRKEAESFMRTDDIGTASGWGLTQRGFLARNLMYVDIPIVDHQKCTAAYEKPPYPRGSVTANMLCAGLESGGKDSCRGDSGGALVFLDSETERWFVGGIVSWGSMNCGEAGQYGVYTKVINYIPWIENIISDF
Chain of MASP-2 CCP2-SP (O00187 364-432 partner): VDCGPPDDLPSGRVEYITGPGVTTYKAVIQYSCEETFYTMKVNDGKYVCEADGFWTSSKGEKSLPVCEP
Chain of MASP-2 (CCP1-CCP2-SP) (O00187 445-686): as the sequence (O00187 445-686) above

C[C@H](NC(=O)[C@H]1C[C@H](c2ccccc2)CN1)C(=O)NCc1ccc2c(N)nccc2c1 [compound 1090]
IC50 [1]: 500 to 5000 nM
Ki [2]: < 500 nM
H-bond distance to MASP-2 ASP 627 atom OD2 ([3]; Table A1 (H-Bonds), ASP 627 OD2): 2.8
H-bond distance to MASP-2 GLY 656 atom N ([3]; Table A1 (H-Bonds), GLY 656 N): 3.3
H-bond distance to MASP-2 GLY 656 atom O ([3]; Table A1 (H-Bonds), GLY 656 O): 2.78
H-bond distance to MASP-2 SER 654 atom O ([3]; Table A1 (H-Bonds), SER 654 O): 2.96
H-bond distance to MASP-2 SER 657 atom OG ([3]; Table A1 (H-Bonds), SER 657 OG): 2.73
van der Waals contact distance, MASP-2 HIS 483 atom CD2 ([3]; Table A2-1): 3.74
van der Waals contact distance, MASP-2 PHE 529 atom CE1 ([3]; Table A2-3): 3.87
van der Waals contact distance, MASP-2 amino acid atom to compound atom ([3]; Table A2-7 continued: CYS 629 (CA)): 3.89
van der Waals contact distance, MASP-2 amino acid atom to compound atom ([3]; Table A2-8, CYS 629 / ARG 630, AA atoms CB, N, C, O, CA, CB, CD): 3.9
van der Waals contact distance, MASP-2 amino acid atom to compound atom ([3]; Table A2-9, ARG 630, AA atoms CG, CZ): 3.64
van der Waals contact distance, MASP-2 amino acid atom to compound atom ([3]; Table A2-9 second part, ARG 630, AA atoms N, NE, NH1): 3.85
van der Waals contact distance SER 657 atom C ([3]; Table A2-14, MASP-2 SER 657 C, columns c12-c13 (inferred)): 3.7
Ligand-pharmacophore element distance, pharmacophore element C2 ([3]; Table A4-1, element C2): 0
Ligand-pharmacophore element distance, pharmacophore element C3 ([3]; Table A4-1, element C3): 0
Ligand-pharmacophore element distance, pharmacophore element C4 ([3]; Table A4-1, element C4): 0
Ligand-pharmacophore element distance, pharmacophore element C5 ([3]; Table A4-1, element C5): 0
Ligand-pharmacophore element distance, pharmacophore element C6 ([3]; Table A4-1, element C6): 0
Ligand-pharmacophore element distance, pharmacophore element C7 ([3]; Table A4-1, element C7): 0
Ligand-pharmacophore element distance, pharmacophore element CA1 ([3]; Table A4-1, element CA1): 0.98
Ligand-pharmacophore element distance, pharmacophore element CA2 ([3]; Table A4-1, element CA2): 0
Ligand-pharmacophore element distance, pharmacophore element CA3 ([3]; Table A4-1, element CA3): 0
Ligand-pharmacophore element distance, pharmacophore element CA4 ([3]; Table A4-1, element CA4): 0
Ligand-pharmacophore element distance, pharmacophore element CA5 ([3]; Table A4-1, element CA5): 0.91
Ligand-pharmacophore element distance, pharmacophore element CA6 ([3]; Table A4-1, element CA6): 0
d(CA1,O1) [3, 4]: 5.59
d(CA1,O2) [3, 4]: 5.11
d(H4,O1) [3, 4]: 3.15
d(H4,O2) [3, 4]: 3.68
d(O1,O2) [3, 4]: 3.38
d(CA5,N2) [3, 5]: 5.09
d(N2,C4)4 [3, 5]: 7.94
d(O2,H3) [3, 5]: 5.87
d(O2,N2) [3, 5]: 2.72
a(CA1, O1, O2) ([3]; Table A6-1 pharmacophore angle): 100.34
a(O1, O2, H4) ([3]; Table A6-1 pharmacophore angle): 121.29
a(O1, O2, H3) ([3]; Table A6-2 pharmacophore angle): 152.05
a(O1, O2, N2) ([3]; Table A6-2 pharmacophore angle): 140.84
Pharmacophore torsion angle a(H4, O1, O2, H3) [3, 6]: 91.31
Pharmacophore torsion angle a(H4, O1, O2, N2) [3, 6]: −177.46
Pharmacophore torsion angle a(O1, H4, O2, CA1) [3, 6]: −92.71
Pharmacophore torsion angle a(O1, O2, N2, CA5) ([3]; Table A7-2, between pharmacophore elements of the bound compound): 134.91
Pharmacophore protein distance to MET_658 (first MET_658 column) ([3]; Table A8-6, 6th residue column, nearest protein atom in cell to the left): 2.69
Pharmacophore protein distance to MET_658 (second MET_658 column) ([3]; Table A8-6, 9th residue column, nearest protein atom in cell to the left): 2.71
Pharmacophore protein distance to GLY_528 [3, 7]: 3.61
Pharmacophore protein distance to PHE_529 [3, 7]: 2.77
Pharmacophore protein distance to PRO_608 [3, 7]: 3.95
Pharmacophore protein distance to SER_611 [3, 7]: 2.87
Pharmacophore protein distance to TRP_655 ([3]; Table A8-6, pharmacophore elements C6, CA3, O3, H1, nearest protein atom in cell to the left): 3.50
